# Values joined by “and” are separate entries in the source; they are usually repeats but may differ in a detail not shown here. Identical values can stand only once. “Also recorded” adds a separate entry of the source. Counter-ions that a name gives are not always drawn. Like-named read-outs stand apart in the source and are kept apart here.
# Key:
# [1] = tested on: nicotine to cotinine metabolism by human liver microsomes; test: Chemical inhibition studies of nicotine to cotinine metabolism in 30 human liver microsomes and K27 microsomes; assay type: biochemical; conditions: for mean inhibition of cotinine formation (mean±SD): 150 μM inhibitor (each), 100 μM (S)-nicotine, 30 human liver microsomes; for rank order of potency in inhibiting cotinine formation: 10 and 100 μM inhibitor, 50 μM nicotine, K27 liver microsomes
# Description: Chemical inhibition studies. […] To maximize inhibition, and reduce the loss due to its own metabolism, a concentration of 150 μM was chosen for each specific inhibitor. […] This concentration was chosen to maximize the contributions of each cytochrome P450 involved in nicotine metabolism, since each enzyme would likely have varying affinities for nicotine. […] High and low concentrations ([…]) of coumarin, 7methylcoumarin, 7-methoxycoumarin, and 7-ethoxycoumarin were incubated with 50 μM nicotine in K27 human liver microsomes.
# CYP2D6 [2] = molecular target: T1, CYP2D6 (Homo sapiens, UniProt P10635); test: in vitro; conditions: pH 7.4
# T1 sequence (P10635 whole entry): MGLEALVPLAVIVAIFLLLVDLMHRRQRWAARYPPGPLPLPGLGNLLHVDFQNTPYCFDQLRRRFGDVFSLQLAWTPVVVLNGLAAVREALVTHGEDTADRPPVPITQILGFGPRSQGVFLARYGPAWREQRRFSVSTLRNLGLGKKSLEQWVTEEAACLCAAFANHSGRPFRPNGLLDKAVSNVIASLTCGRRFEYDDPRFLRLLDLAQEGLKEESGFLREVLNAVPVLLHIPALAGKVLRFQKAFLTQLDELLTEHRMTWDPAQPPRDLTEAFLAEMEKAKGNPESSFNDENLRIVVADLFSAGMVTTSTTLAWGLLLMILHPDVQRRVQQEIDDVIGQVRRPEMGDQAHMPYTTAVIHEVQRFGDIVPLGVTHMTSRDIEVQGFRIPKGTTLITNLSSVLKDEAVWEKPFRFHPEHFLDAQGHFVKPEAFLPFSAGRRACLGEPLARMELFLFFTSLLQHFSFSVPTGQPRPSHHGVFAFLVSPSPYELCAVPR
# CYP2A6 [3] = molecular target: T2, CYP2A6 (Homo sapiens, UniProt P11509); test: biochemical
# T2 sequence (P11509 1-494): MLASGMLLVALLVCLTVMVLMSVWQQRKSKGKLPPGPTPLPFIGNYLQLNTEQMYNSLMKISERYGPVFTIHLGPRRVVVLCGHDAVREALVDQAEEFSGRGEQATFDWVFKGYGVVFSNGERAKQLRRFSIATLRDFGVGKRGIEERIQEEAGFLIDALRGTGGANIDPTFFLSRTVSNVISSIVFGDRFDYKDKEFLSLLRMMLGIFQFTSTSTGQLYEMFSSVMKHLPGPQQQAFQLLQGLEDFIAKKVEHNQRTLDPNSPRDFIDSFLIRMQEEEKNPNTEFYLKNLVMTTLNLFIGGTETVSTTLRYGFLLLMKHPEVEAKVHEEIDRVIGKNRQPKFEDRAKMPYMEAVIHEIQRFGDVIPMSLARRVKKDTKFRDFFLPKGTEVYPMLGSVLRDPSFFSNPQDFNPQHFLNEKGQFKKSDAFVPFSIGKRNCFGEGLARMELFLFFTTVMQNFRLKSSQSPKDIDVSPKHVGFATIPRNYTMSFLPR
# Description: Coumarin, 7-methylcoumarin, 7-methoxycoumarin and 7-ethoxycoumarin, at 10 and 100 μM concentrations, were incubated with 50 μM nicotine in K27 human liver microsomes. Furthermore, nicotine at 10, 30 and 50 μM concentrations was incubated using K27 liver microsomes in the presence of 0, 1, 2 and 5 μM concentrations of coumarin.
# Microsomes were removed from −70° C. freezer and thawed on ice. […] The reaction was stopped by adding 100 μl to 20% Na2CO3 (pH 11.4).
# [4] = in vivo; cited from earlier work
# in vitro = conditions: human, human liver microsomes
# Description: The reaction was started by adding NADPH.
# Ethyl acetate (3 mls) was added for extraction purposes.
# Data Analysis. […] [formula]
# [5] = smokers infused with 2 μg/kg/min×30 minutes
# CYP2D6 [6] = molecular target: T1, CYP2D6; conditions: human liver microsomes, Wu, 1993; cited from earlier work
# [7] = tested on: nicotine to cotinine metabolism by K20 human liver microsomes
# [8] = tested on: nicotine to cotinine metabolism by K20 human liver microsomes; test: Quinidine and coumarin inhibition of cotinine formation in K20 human liver microsomes
# [9] = in humans; cited from earlier work
# CYP2A6 [10] = molecular target: T2, CYP2A6; test: Clinical study of methoxsalen pre-treatment before subcutaneous nicotine in dependent smokers; assay type: in vivo; parameters: 200 μl human liver microsomes (0.5 mg/ml); from tissue; host or cells: human liver microsomes (donor livers K12, K26, K27, K28)
# Description: Frequent blood samples were drawn over 6 hours for measurement of nicotine and cotinine concentrations in plasma and measures of nicotine effects (e.g., heart rate; blood pressure; symptoms and urges and desires to smoke).
# Each subject abstained from tobacco, food, beverages (other than water), and any inconsistently used drugs from midnight before each study day but continued to take any regularly scheduled drugs allowed by the protocol (e.g., oral contraceptives, daily vitamins). Before baseline measures were taken, a breath CO sample (Ecolyzer) was taken to assess compliance with the smoking abstinence (<10 ppm expected). The subsequent daily schedule is summarized here. All measurements are with respect to a time zero at 8 AM, at which time the first of three hourly nicotine injections were given. Nicotine was injected at 0, +1, and +2 hours.
# Baseline physiologic and subjective measures were taken at −30 minutes, +30 minutes, and hourly thereafter until +5.5 hours, approximately coinciding with the expected peak plasma nicotine concentrations after each injection. Blood samples were taken at least hourly, more often around the expected peaks after the first and third injections, as described below.
# Sterile nicotine bitartrate was obtained from Sigma Chemical. […] Nicotine injections of 31 μg/kg (expressed as the base) in sterile saline were used. […] The solutions were passed through a viral filter to remove any remote risk of viral or bacterial contamination.
# Using an indwelling venous catheter, 8 ml blood samples were drawn every hour from +0 to +6 hours, and additional blood samples were taken at 15, 25, and 40 minutes after the first and third nicotine injections to characterize the kinetics around the expected time of the peak concentration, 25 minutes from injection. Samples that could not be immediately centrifuged for extraction of plasma were stored on ice for at most one hour before centrifugation.
# Plasma (nicotine, cotinine) and urinary nicotine and cotinine were measured using an HPLC ion exchange column assay, using an electrochemical detector for nicotine and a UV detector for other compounds. The sensitivity of the nicotine assay was <1 ng/ml and that of the cotinine was <5 ng/ml. Conjugates in urine were determined after hydrolysis with beta-glucuronidase.
# CYP2A6 [11] = test: Antisense knockdown of CYP2A6 protein in h2A6 lymphoblast cells (Western blot); assay type: cell-based, human
# Description: (§1) In order to test the feasiblility of using antisense oligodeoxynucleotides (ASO) for the reduction of the CYP2A6 enzyme we designed 4 ASO to four different parts of the human CYP2A6 gene and mRNA sequence. The ability to decrease CYP2A6 protein was tested in 2 different human cell lines. The first was a human lymphoblast cell line (h2A6) with a plasmid expression system containing the human CYP2A6 cDNA which is commercially available from Gentest Corp (Woburn, Mass.) and the second was a human hepatic cell line which expresses CYP2A6 (HepG2).
# The h2A6 P450 cells were grown to 3×10^6 cells, the media removed and 5 μg ASO and 20 μg/ml lipofectin was added in 1 ml of 5% horse serum supplemented media. The cells were grown for 24 hr when a further 4 mls of complete media (10% horse serum) was added and the cells were grown for an additional 48 hr. Each cell sample was then washed 3 times with phosphate buffered saline, pelleted and frozen. […] These studies were then repeated using the addition of missense oligodeoxynucleotides (MSO) controls for this sequence. The MSO controls have 2 nucleotides switched at the 5 and 3 prime end.
# CYP2A6 [12] = test: Antisense knockdown of CYP2A6 protein in HepG2 cells; assay type: cell-based, human; conditions: 2 μg ASO, relative to control untreated and MSO#23 treated cells
# Description: as §1
# The human hepatic HepG2 cells, which express CYP2A6, were grown and aliquoted at 1.0×10^5 cells and grown for 48 hrs in 2 mls complete media (10% fetal calf serum). After 48 hr, 2 μg ASO oligos and 15 μg/ml lipofectin was added in 1 ml 5% FCS media and grown for 24 hr. Cells then trypsinized and washed for Western blots or fixed with 4% paraformaldehyde for Immunocytochemistry.
# [13] = seven smokers, methoxsalen vs placebo
molecule,measurement,setting,value
CO[C@H]1C[C@H](O[C@H]2[C@H](C)[C@@H](O[C@@H]3O[C@H](C)C[C@H](N(C)C)[C@H]3OC(C)=O)[C@@H](C)C[C@@]3(CO3)C(=O)[C@H](C)[C@@H](OC(C)=O)[C@@H](C)[C@@H](C)OC(=O)[C@@H]2C)O[C@@H](C)[C@@H]1OC(C)=O [troleandomycin],mean inhibition of cotinine formation (mean±SD),[1],3%
Cc1ccc2ccc(=O)oc2c1 [7-methylcoumarin],rank order of potency in inhibiting cotinine formation,[1],coumarin>7-methoxycoumarin>7-methylcoumarin>7-ethoxycoumarin
"COc1ccc2c(c1)[C@]13CCCC[C@@H]1[C@H](C2)N(C)CC3 [dextromethorphan, Dextromethorphan hydrobromide]",Km at 30 min,CYP2D6 [2],5.79 ± 2.01 µM
COc1ccc2ccc(=O)oc2c1 [7-methoxycoumarin],rank order of potency in inhibiting cotinine formation,[1],coumarin>7-methoxycoumarin>7-methylcoumarin>7-ethoxycoumarin
CCN(CC)C(=S)S [diethyldithiocarbamic acid],Ki,CYP2A6 [3],14.5 µM
O=C1C[C@@H](c2ccc(O)cc2)Oc2cc(O)cc(O)c21 [naringenin],Ki,CYP2A6 [3],4.3 µM
Cc1ccccc1C(OCCN(C)C)c1ccccc1 (stereo not drawn) [orphenadrine],estimated half-life,[4],about 14 h
"CN1CCC[C@H]1c1cccnc1 [nicotine, (S)-nicotine]",Km at 45 min,"in vitro; pH 7.4, apparent Km, formation of cotinine (mean±SD), 30 human liver microsomes",66.7 ± 31.8 µM
same,Km at 45 min,"in vitro; pH 7.4, mean Km, nicotine to cotinine (mean±SD), 30 human livers",66.6 ± 31.8 µM
same,urine concentration of NIC,[5],> 80 ng/mL
same,inhibition of dextromethorphan metabolism by CYP2D6,CYP2D6 [6],did not inhibit
C=C[C@H]1C[N@@]2CC[C@H]1C[C@@H]2[C@@H](O)c1ccnc2ccc(OC)cc12 [quinidine],inhibition,[7],~20% and 25%
same,inhibition of cotinine formation,[8]; 0.1 μM inhibitor,no inhibition
same,inhibition of cotinine formation,[8]; 1.0 μM inhibitor,no inhibition
same,inhibition of cotinine formation,[8]; 10 μM inhibitor,8%
CCOc1ccc2ccc(=O)oc2c1 [7-ethoxycoumarin],rank order of potency in inhibiting cotinine formation,[1],coumarin>7-methoxycoumarin>7-methylcoumarin>7-ethoxycoumarin
O=c1ccc2ccccc2o1 [coumarin],mean inhibition of cotinine formation (mean±SD),[1],over 80%
same,mean inhibition of cotinine formation (mean±SD),[1]; listed as Coumarin,84%±11% and 84±11%
same,rank order of potency in inhibiting cotinine formation,[1],strongest inhibitory effect; also recorded: coumarin>7-methoxycoumarin>7-methylcoumarin>7-ethoxycoumarin
same,nature of inhibition of nicotine metabolism,[1]; Cornish-Bowden plots,competitive
same,Ki,"[1]; K27 human liver microsomes, n=3, Dixon plot, read-out: apparent Ki, inhibition of nicotine metabolism",~2 µM
same,Ki,"[1]; ex vivo in human liver microsomes, read-out: Ki, inhibition of NIC metabolism to COT",1.5 µM
"COc1c2occc2cc2ccc(=O)oc12 [methoxsalen, 9-Methoxy-7H-furol[3,2-g][1]benzopyran-7-one]",half-life,[9],about 1 hour
same,change in nicotine concentrations,"CYP2A6 [10]; plasma, seven subjects, FIG. 25",large changes
same,desire to smoke and urge to smoke,CYP2A6 [10]; [13],significant decreased desire to smoke and urge to smoke
same,expectation that a cigarette would be pleasant,CYP2A6 [10]; [13],significant decrease
same,subjective and physiologic effects accompanying increased plasma nicotine,CYP2A6 [10]; [13],"significant increase in nausea, anxiousness, difficulty concentrating, systolic blood pressure"
"ASO#23: antisense oligodeoxynucleotide, CYP2A6 mRNA 333-353, exon 2 3 prime end: CCATAGCCTTTGAAGACCCAG (DNA, backbone and methylation of C not given here)","CYP2A6 immunoreactivity, first test of 4 ASO","CYP2A6 [11]; 5 μg ASO, Western blot",effective at removing the CYP2A6 immunoreactivity
same,"amount of CYP2A6, repeat with MSO controls",CYP2A6 [11]; relative to untreated control cells and MSO#23-treated cells,effectively deceased the amount of CYP2A6
same,CYP2A6 protein,CYP2A6 [12],profound decreases in CYP2A6 protein
